Structures can show the parent of a compound that is named as a salt.

Data set [1] deals with multirecurrent urinary bladder neoplasia. Briefly: Patients with urinary bladder multirecurrent neoplasia treated orally. The data set is classed as in vivo, human. From the text:
10 patients, 8 males and 2 females, of age from 55 to 75 years, all affected with multirecurrent urinary bladder neoplasia, at stages ranging from pT1G1NxMx and pT2G3NxMx, were orally treated with L-aC, at a standard dosage of 2 g/day, for a time from 10 to 12 months. They were then subjected to follow-up ranging from 6 to 22 months.
Before treatment with L-aC, patients had undergone an individual number of endoscopic resections (Turb), varying from 6 to 19 and in 1 case partial cystectomy with ureterocystoneostomy had been performed.
In all patients, treatment with L-aC started immediately after endoscopic resection.
Patients were subjected to quarterly endoscopic verification for the first year from the beginning of the treatment.
After 4 negative quarterly controls, the endoscopic control was performed every six months for a duration of 2 years.

The subject of data set [2] is prostate (Du 145) adenocarcinoma cell line. Briefly: Methylene blue assay on stabilized human neoplastic cell lines. The data set is classed as cell-based. The settings on record: prostate carcinoma line. As for the experimental part: (§1) The effects of L-aC on stabilized human neoplastic cell lines were tested using the methylene blue assay.
(§2) Acute promyelocytic leukemia cell line (HL60) and prostate (Du 145), colon (HT 29) and breast (MCF 7) adenocarcinoma cell lines have been used.
(§3) Cell suspensions at concentrations of 10^5 cells/ml were prepared.
(§4) 100 μl of the obtained cell suspension were inoculated on 96 well plates and incubated at 37° for 12 hours, to obtain cell adhesion to the plates. After 12 hours, L-aC was added at the concentrations of 0.2 mg/ml, 2 mg/ml, 20 mg/ml. After 72 hours, the culture medium was removed and 100 μl of 100% ethanol were added for 30 min. Subsequently ethanol was removed and 1% methylene-blue was added for 2 hours. The dye was then removed and the plates were dried before adding 1M HCl.
(§5) The cytotoxicity percentage was calculated using the following formula:
(§6) (1−[O^D treated cells/O^D control cells)×100.
(§7) The optical density was evaluated by Uniskan micro-spectrophotometer with 630 nmwavelength filter.

Data set [3] deals with Acute promyelocytic leukemia cell line (HL60). The data set is described as above. The data set is classed as cell-based. As for the experimental part:
as §1, §2, §3, §4, §5, §6, §7

Take `CC(=O)OC(CC(=O)[O-])C[N+](C)(C)C` [L-aC, L-acetylcarnitine hydrochloride]: the “disease status at follow-up” value in data set [1] (2 patients completed follow-up, 6 still under study) is on record as “free from the disease”. For the same compound, in data set [1] (10 patients, oral 2 g/day 10 to 12 months after endoscopic resection, first and subsequent quarterly controls), the “endoscopic control for tumour” value is on record as “all patients were negative for the tumour”. Further, in data set [1] (oral 2 g/day, 10 to 12 months), the “hematochemical parameters and side effects during treatment” value is recorded as “Neither significant changes in the hematochemical parameters nor side effects of any kind were observed”. Further, the cytotoxicity in data set [2] turned out to be 58%; in data set [3], 52%.

The record behind these values is patent US6673839B1, “Pharmaceutical compositions with antitumour activity” (Universita' Degli Studi di Catania, priority 1998, dated 2004).
